The values below come from patent publication US20090192192A1, “INHIBITORS OF BIOFILM FORMATION OF GRAM-POSITIVE AND GRAM-NEGATIVE BACTERIA” (priority 2007, published 2009).

Structures are written as SMILES.

What all share (assay type): cell-based
Assay [1] deals with Staphylococcus aureus U of C#18 (MRSA). Kind of assay: MBEC assay, biofilm formation of S. aureus U of C #18 (MRSA). As to conditions: read-out: S. aureus U of C #18 (MRSA) log R (log reduction); for log reduction at 10 µM: compound concentration 10 μM; for log reduction at 100 µM: compound concentration 100 μM. How it is done: (§1) The compound to be tested was dissolved in DMSO to obtain a concentration that was 100 times that of the final concentration required (1 mM for the 10 μM assay and 10 mM for the 100 μM assay). 1.5 μL of the above solution was placed into each well of a 96 well plate (final volume in each well=150 μL, final DMSO concentration of 1% (v/v)).
(§2) To grow the organism and form a biofilm, a cryogenic stock of the test organism (at −70° C.) was used. A first sub-culture was streaked out onto TSA (tryptic soy agar), upon which the plate was incubated at 35±2° C. for 24 hours and stored wrapped in parafilm at 4° C. afterwards. From this first sub-culture, a second sub-culture was streaked out onto TSA. The plate was incubated at 35±2° C. for 24 hours. The second sub-culture was used within 24 hours starting from the time it was first removed from incubation. Using the second sub-culture an inoculum in 3 mL sterile water that matches a 0.5 McFarland Standard (1.5×10^8 cells per mL) was created in a glass test tube using a sterile cotton swab. 2.2 mL of this solution was diluted in 22 mL 100% TSB (tryptic soy broth) medium to a cell density of approximately […]. The diluted organism was inverted 3-5 times to achieve uniform mixing of the organism. One sample (100 μl) of the diluted organism was used for an inoculum check by serially diluting and spot plating on TSA.
(§3) To prepare a challenge plate, […] of the diluted organism was added to each well of a 96 well plate except the sterility control wells. The test compounds were added to the wells to make up final concentrations of 10 μM and […] (1.5 μL/well) in the designated location in the test plate. 128.5 μL of 100% universal neutralizer (1% Tween 80 in Cation Adjusted Mueller Hinton Broth, CAMHB) was placed in each of the wells. 130 μL of media was added to the growth control wells. 128.5 μL of media+1.5 μL of DMSO were added to a second set of growth control wells. 150 μL of media was added to the sterility controls. Each sample was run in triplicate. The plate was covered by a lid with a peg per well and wrapped in parafilm and placed on a shaker in a humidified incubator (GeneVac) at 35±+2° C. for 24 hours set at 110 rpm.
(§4) Rinse plate(s) of 0.9% saline (200 μL per well) were prepared in a sterile 96 well microtitre plate. Lid-associated pegs were rinsed in 0.9% saline for approximately 1-2 minutes. The peg lid was transferred to the recovery media (1.0% Tween 80 in CAMHB) then sonicated for 30 minutes to dislodge surviving biofilm. Following sonication, 100 μL from each well of the 96 well plate was placed into the first 12 wells of the first row of a 96 well microtiter plate. 180 μl of 0.9% sterile saline was placed in the remaining rows. A serial dilution (10^0-10^7) was prepared by moving 20 μl down each of the 8 rows. 20 μl from each well was removed and spot plated on a prepared TSA. In the remaining recovery plate, 100 μl of fresh growth media (1.0% Tween 80 in CAMHB) was placed in each well to replace the amount removed. The recovery plate was covered with a regular lid and incubated at 35±2° C. for 24 hours and read visually to confirm antimicrobial activity of the test compounds.
(§5) The compounds of the present disclosure have been tested regarding their efficiency to inhibit biofilm formation of Staphylococcus aureus U of C#18 (MRSA), Staphylococcus aureus 456 (MRSA), Staphylococcus epidermidis RP62A, and Pseudomonas aeruginosa PAO1.

The test system of assay [2] is Staphylococcus aureus 456 (MRSA). Kind of assay: MBEC assay, biofilm formation of S. aureus 456 (MRSA). As to conditions: read-out: S. aureus 456 (MRSA) log R (log reduction); for log reduction at 10 µM: compound concentration 10 μM; for log reduction at 100 µM: compound concentration 100 μM. Here is the method:
as §1, §2, §3, §4, §5

For assay [3], the system named is Staphylococcus epidermidis RP62A. Kind of assay: MBEC assay, biofilm formation of S. epidermidis RP62A. As to conditions: read-out: S. epidermidis RP62A log R (log reduction); for log reduction at 10 µM: compound concentration 10 μM; for log reduction at 100 µM: compound concentration 100 μM. How it is done: as §1, §2, §3, §4, §5
Assay [4] has as its system Pseudomonas aeruginosa PAO1. Kind of assay: MBEC assay, biofilm formation of P. aeruginosa PAO1. As to conditions: for IC50: biofilm formation, read-out: P. aeruginosa PAO1 inhibitory concentration IC50; for inhibition at 100 µM: compound concentration 100 μM. In a few lines:
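Peg-lid biofilms were grown 24 h at 35±2 °C, 110 rpm, from inoculum diluted to ~6.0×10^5 cells per mL in TSB, with compound at 10 μM or 100 μM final (1% DMSO) in 1% Tween 80/CAMHB. Pegs were rinsed, then sonicated 30 min into recovery medium; survivors were spot-plated, and recovery plates were read visually after 24 h; triplicates.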

As to `CCCCCCCCCCNC(=O)N(C)[C@@H](C)c1ccccc1` [Example 7, (S)-3-decyl-1-methyl-1-(1-phenylethyl)urea], the log reduction at 10 µM in assay [1] amounted to 0.84; in assay [2], 0.53; in assay [3], 0. For the same compound, the log reduction at 100 µM was determined as 1.12 in assay [1], 1.26 in assay [2] and 0 in assay [3]. Also, the IC50 in assay [4] worked out at 4 µM.
For the compound `CCCCCCCCCCNC(=O)Nc1cc(C(C)(C)C)nn1C` [Example 8, 1-(3-tert-butyl-1-methylpyrazol-5-yl)-3-decylurea], the log reduction at 10 µM in assay [1] stood at 0.26; in assay [2] it was 0.42; in assay [3], 0. The log reduction at 100 µM was found to be 0.8 in assay [1], 1.04 in assay [2] and 0 in assay [3]. In addition, in assay [4], the IC50 is 3 µM.
Take `CCCCCCCCOCCC(=O)Nc1ccc(F)cc1C(F)(F)F` [Example 3, N-(4-fluoro-2-(trifluoromethyl)phenyl)-3-(octyloxy)propanamide]: the log reduction at 10 µM in assay [1] was 0.11; in assay [2], 0.19; in assay [3] it was 0. Besides, the results for the log reduction at 100 µM in assay [1], in assay [2] and in assay [3] were 0.19, 0.49 and 0, respectively. The IC50 in assay [4] is 19 µM.
Regarding `CCCCCCCCCCCC(=O)Nc1cc(C(C)(C)C)nn1C` [Example 9, N-(3-tert-butyl-1-methylpyrazol-5-yl)dodecanamide], the values for the log reduction at 10 µM in assay [1], in assay [2] and in assay [3] were 0.42, 0.65 and 0, respectively. Further, the results for the log reduction at 100 µM in assay [1], in assay [2] and in assay [3] were 0.46, 1.06 and 0, respectively. In addition, the IC50 in assay [4] worked out at 12 µM.
One may read the inhibition as the percentage by which the read-out fell short of the control. A low value points to little suppression. As to `CCCCCCCCCCC(=O)N1CCCC(C(=O)N(CC)CC)C1` (centres unmarked) [Example 11, N,N-diethyl-1-undecanoylpiperidine-3-carboxamide], the log reduction at 10 µM came out at 0.84 in assay [1] and 0.77 in assay [3]. The values for the log reduction at 100 µM in assay [1] and in assay [3] were 0.88 and 1.48, respectively. In assay [4], this compound registered an inhibition at 100 µM of 75%.
Regarding `CCCCCCCCCCNC(=O)N(C)c1ccccc1` [Example 6, 3-decyl-1-methyl-1-phenylurea], the log reduction at 10 µM amounted to 0.72 in assay [1], 1.61 in assay [2] and 0 in assay [3]. Besides, the log reduction at 100 µM in assay [1] turned out to be 1.08; in assay [2], 2.3; in assay [3], 4.45. For the same compound, the IC50 in assay [4] is 9 µM.
Consider `CCCCCCCCCC(=O)NC(=O)Nc1ccnn1CC` [Example 4, N-(1-ethylpyrazol-5-ylcarbamoyl)decanamide], for which the log reduction at 10 µM in assay [1] was determined as 1.13; in assay [2] it was 1.14; in assay [3] it was 0. Further, the log reduction at 100 µM in assay [1] amounted to 1.49; in assay [2], 3.28; in assay [3] it was 0.78. Moreover, the IC50 in assay [4] amounted to 11 µM.
With `CCCCCCCCCCCCC(=O)N1CCCC(C(=O)N(CC)CC)C1` (centres unmarked) [Example 12, N,N-diethyl-1-tridecanoylpiperidine-3-carboxamide], in assay [1], the log reduction at 10 µM is 0.08 and the log reduction at 100 µM came out at 1.57. In assay [3], the log reduction at 10 µM was found to be 1.42 and the log reduction at 100 µM was determined as 2.47. In addition, in assay [4], testing at 100 µM gave an inhibition of 85%.
Take `CCCCCCCCOCCC(=O)N(C)c1ccc(F)cc1` [Example 5, N-(4-fluorophenyl)-N-methyl-3-(octyloxy)propanamide]: the log reduction at 10 µM was -0.21 in assay [1], 0.54 in assay [2] and 0 in assay [3]. In addition, the figures for the log reduction at 100 µM in assay [1], in assay [2] and in assay [3] were 1.29, 1.86 and 0, respectively. The IC50 in assay [4] is 24 µM.
